Results reported in PMC3448056, “2-Benzamido-N-(1H-benzo[d]imidazol-2-yl)thiazole-4-carboxamide derivatives as potent inhibitors of CK1δ/ε” (Amino Acids, 2012).
Values joined by “and” are separate entries in the source; they are usually repeats but may differ in a detail not shown here. Equal values may be shown once.

Columns and labels:
Assay type in all cases: biochemical
CK1δkd = biological target: T1, CK1δkd (Rattus norvegicus, UniProt Q06486); assay: In vitro kinase assay, CK1δ kinase domain; settings: for activity against CK1δkd (in words, SAR discussion): kinase assays using a CK1 specific substrate
T1 construct: Recombinant CK1δ kinase domain (CK1δkd, NEB, Frankfurt am Main, Germany); purchased NEB, Frankfurt am Main, Germany
T1 sequence (Q06486 9-277 limits assumed): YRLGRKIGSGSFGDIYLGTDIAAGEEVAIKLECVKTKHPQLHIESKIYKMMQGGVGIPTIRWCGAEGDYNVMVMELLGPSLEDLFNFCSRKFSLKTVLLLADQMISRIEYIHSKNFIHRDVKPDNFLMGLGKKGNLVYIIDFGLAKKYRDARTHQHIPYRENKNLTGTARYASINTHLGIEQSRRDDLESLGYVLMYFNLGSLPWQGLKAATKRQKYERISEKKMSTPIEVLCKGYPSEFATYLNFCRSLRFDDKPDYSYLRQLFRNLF

GST-rat CK1δ = biological target: T2, GST-rat CK1δ (Rattus norvegicus, UniProt Q06486); assay: In vitro kinase assay, GST-rat CK1δ
T2 construct: made in house; host or cells: bacteria (pGEX-2T)

GST-rat CK1δ^M82F = biological target: T3, GST-rat CK1δ^M82F (Rattus norvegicus, UniProt Q06486, M82F); assay: In vitro kinase assay, gatekeeper mutant; settings: inhibitor at its determined IC50 concentration (Fig. 7)
T3 construct: made in house; host or cells: bacteria (pGEX-2T)
T3 sequence (Q06486 1-415 M82F): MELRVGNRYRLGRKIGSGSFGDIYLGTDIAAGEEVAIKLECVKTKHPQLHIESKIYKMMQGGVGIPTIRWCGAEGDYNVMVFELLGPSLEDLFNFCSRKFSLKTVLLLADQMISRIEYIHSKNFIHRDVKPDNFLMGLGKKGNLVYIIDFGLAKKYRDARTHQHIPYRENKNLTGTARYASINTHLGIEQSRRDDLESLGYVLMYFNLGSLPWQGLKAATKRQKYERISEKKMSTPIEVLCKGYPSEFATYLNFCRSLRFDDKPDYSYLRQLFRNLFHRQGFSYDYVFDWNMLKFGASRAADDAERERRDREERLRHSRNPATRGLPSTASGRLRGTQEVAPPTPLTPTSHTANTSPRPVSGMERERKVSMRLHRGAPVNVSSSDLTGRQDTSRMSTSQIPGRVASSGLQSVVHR
Procedure: For the expression of wt rat CK1δ and rat CK1δ^M82F as glutathione S-transferase fusion proteins the plasmids pGEX-2T-CK1δ (FP449) (Knippschild et al. [1997]) and pGEX-2T-CK1δ^M82F (FP1153) (Peifer et al. [2009]) were used.
(§1) Expression and purification of the GST-fusion proteins GST-mouse p53^1–64 (FP267), GST-rat CK1δ (FP449), GST-rat CK1δ^M82F (FP1153), GST-mouse CK1δTV1 (FP1170), and GST-mouse CK1δTV2 (FP1171) was carried out as described elsewhere (Wolff et al. [2005]). Expression of fusion proteins FP1170 and 1171 was either performed at 37°C for 2 h, or at 15°C for 14 h. FP449 and FP1153 were always expressed at 15°C for 14 h.
(§2) In vitro kinase assays were carried out in the presence of various potential inhibitors of CK1δ at an ATP concentration of 0.01 mM and dimethyl sulfoxide (DMSO) solvent control as described previously (Knippschild et al. [1996]). Where indicated higher ATP concentrations (0.05, 0.1, 0.25 and 0.5 mM) were used. The fusion protein GST-mouse p53^1−64 (FP267) was used as substrate. Recombinant CK1δ kinase domain (CK1δkd, NEB, Frankfurt am Main, Germany), GST-rat CK1δ (FP449), GST-rat CK1δ^M82F (FP1153), GST-mouse CK1δTV1, GST-mouse CK1δTV2 and recombinant human CK1ε (Invitrogen, Karlsruhe, Germany) were used as sources of enzyme. Phosphorylated proteins were separated by SDS-PAGE and the protein bands were visualized on dried gels by autoradiography. The phosphorylated protein bands were excised and quantified by Cherenkov counting.
Previously it has been shown that methionine 82 plays an important role as gatekeeper residue in the docking mode of isoxazoles to the ATP binding pocket since mutation of methionine 82 to phenylalanine blocks binding of this class of CK1δ specific inhibitors (Peifer et al. [2009]) while still binding ATP. Therefore, we now analyzed the effects of exchanging methionine 82 to phenylalanine on the ability of compounds 4, 5 and 6 to inhibit CK1δ activity.

GST-mouse CK1δTV2 = biological target: T4, GST-mouse CK1δTV2 (Mus musculus, UniProt Q9DC28); assay: In vitro kinase assay, GST-mouse CK1δTV2; settings: 0.01 mM ATP, substrate GST-mouse p53^1-64; mean ± SD; read-out: IC50 (μM) GST-CK1δ TV2
T4 construct: made in house; host or cells: bacteria (pGEX-2T)
T4 sequence (Q9DC28 1-409 isoform Q9DC28-2): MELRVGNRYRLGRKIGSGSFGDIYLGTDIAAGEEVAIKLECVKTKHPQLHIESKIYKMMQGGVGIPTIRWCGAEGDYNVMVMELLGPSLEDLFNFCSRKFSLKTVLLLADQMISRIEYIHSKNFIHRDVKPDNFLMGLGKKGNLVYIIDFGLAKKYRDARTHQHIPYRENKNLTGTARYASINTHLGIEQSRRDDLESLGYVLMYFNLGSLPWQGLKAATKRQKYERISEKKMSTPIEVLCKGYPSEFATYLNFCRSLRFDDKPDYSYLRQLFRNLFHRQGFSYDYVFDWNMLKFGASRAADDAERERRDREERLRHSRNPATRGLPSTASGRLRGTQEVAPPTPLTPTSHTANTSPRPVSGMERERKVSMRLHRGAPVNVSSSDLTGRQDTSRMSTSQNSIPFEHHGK
Excerpt: (§3) CK1δTV1 and 2 (transcription variants 1 and 2) were PCR amplified from mouse cDNA (5′-primer TV1 and 2: 5′-[…]-3′, 3′-primer TV1: 5′-[…]-3′, 3′-primer TV2: 5′-[…]-3′) and cloned into pcDNA3.1/V5-His© TOPO® TA cloning vector (Invitrogen, Karlsruhe, Germany) before being subcloned into pGEX-2T expression vector via BamHI to generate plasmids pGEX-2T-mouse CK1δTV1 (FP1170) and pGEX-2T-mouse CK1δTV2 (FP1171).
as §1, §2

human CK1ε = biological target: T5, human CK1ε (Homo sapiens, UniProt P49674); assay: In vitro kinase assay, CK1ε
T5 construct: purchased Invitrogen, Karlsruhe, Germany

GST-mouse CK1δTV1 = biological target: T6, GST-mouse CK1δTV1 (Mus musculus, UniProt Q9DC28); assay: In vitro kinase assay, GST-mouse CK1δTV1; settings: 0.01 mM ATP, substrate GST-mouse p53^1-64; mean ± SD; read-out: IC50 (μM) GST-CK1δ TV1
T6 construct: made in house; host or cells: bacteria (pGEX-2T)
Excerpt: as §3, §1, §2

[1] = symbol, tested range 10–0.005 μM
[2] = 0.01 mM ATP, substrate GST-mouse p53^1-64, mean ± SD

T2 sequence (Q06486 whole entry): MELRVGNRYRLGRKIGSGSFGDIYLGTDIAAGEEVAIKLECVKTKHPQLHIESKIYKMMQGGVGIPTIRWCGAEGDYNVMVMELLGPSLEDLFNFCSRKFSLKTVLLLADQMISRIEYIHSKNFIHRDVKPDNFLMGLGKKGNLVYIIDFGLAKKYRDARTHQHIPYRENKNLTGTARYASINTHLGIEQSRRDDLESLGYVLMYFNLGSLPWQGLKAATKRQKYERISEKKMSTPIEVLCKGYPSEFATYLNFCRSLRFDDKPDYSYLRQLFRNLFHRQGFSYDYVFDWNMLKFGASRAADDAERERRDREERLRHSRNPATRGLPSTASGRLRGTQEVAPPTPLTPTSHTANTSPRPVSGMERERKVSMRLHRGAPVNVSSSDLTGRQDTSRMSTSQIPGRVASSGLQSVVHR
T5 sequence (P49674 whole entry): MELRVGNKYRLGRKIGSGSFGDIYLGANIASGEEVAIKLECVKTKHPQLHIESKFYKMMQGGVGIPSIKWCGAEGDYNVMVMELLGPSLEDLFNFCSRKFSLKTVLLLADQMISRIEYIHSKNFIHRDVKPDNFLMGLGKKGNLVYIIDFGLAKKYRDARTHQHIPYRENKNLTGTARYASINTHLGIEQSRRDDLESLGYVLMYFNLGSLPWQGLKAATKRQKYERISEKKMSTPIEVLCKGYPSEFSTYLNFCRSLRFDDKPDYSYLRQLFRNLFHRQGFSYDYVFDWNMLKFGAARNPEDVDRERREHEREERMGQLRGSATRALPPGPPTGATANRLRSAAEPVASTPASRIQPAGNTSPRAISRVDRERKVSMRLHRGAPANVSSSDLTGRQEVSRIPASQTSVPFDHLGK
T6 sequence (Q9DC28 whole entry): as the sequence (Q06486 whole entry) above

With `Cn1c(NC(=O)c2csc(NC(=O)c3ccccc3OC(F)(F)F)n2)nc2ccccc21` [Compound 3, N-(1-Methyl-1H-benzo[d]imidazol-2-yl)-2-(2-(trifluoromethoxy)benz-amido)thiazole-4-carboxamide] the “activity against CK1δkd (in words, SAR discussion)” value (“activity against CK1δkd” below) (CK1δkd) was “lost”, the IC50 (CK1δkd; [1]) was > 10 µM and the IC50 (GST-rat CK1δ; [1]) was > 10 µM.

Work on `O=C(Nc1nc2ccc(C(F)(F)F)cc2[nH]1)c1csc(NC(=O)c2ccco2)n1` [Compound 7, 2-(Furan-2-carboxamido)-N-(6-(trifluoromethyl)-1H-benzo[d]imidazol-2-yl)thiazole-4-carboxamide] yielded an IC50 (CK1δkd; [2]) of 0.542 ± 0.05 µM and an IC50 (GST-rat CK1δ; [2]) of 1.04 ± 0.31 µM.

For `CS(=O)(=O)c1ccc2[nH]c(NC(=O)c3csc(NC(=O)c4ccccc4OC(F)(F)F)n3)nc2c1` [Compound 2, N-(5-(Methylsulfonyl)-1H-benzo[d]imidazol-2-yl)-2-(2-(trifluoromethoxy)benzamido)thiazole-4-carboxamide], the IC50 (CK1δkd; [2]) was 1.23 ± 0.41 µM, the “activity against CK1δkd” value (CK1δkd) was “diminished activity” and the IC50 (GST-rat CK1δ; [2]) was 5.19 ± 1.14 µM.

For `O=C(Nc1nc(C(=O)Nc2nc3ccc(C(F)(F)F)cc3[nH]2)cs1)c1ccncc1` [Compound 4, 2-(Isonicotinamido)-N-(6-(trifluoromethyl)-1H-benzo[d]imidazol-2-yl)thiazole-4-carboxamide], the IC50 (CK1δkd; [2]) was 0.409 ± 0.12 µM, the “inhibition of CK1δkd in initial screen” value (CK1δkd; inhibitor 10 μM, 10 μM ATP (Fig. 1a)) was “significant inhibition” and the mode of inhibition (CK1δkd; inhibitor at IC50 concentration, ATP 0.01-0.5 mM (Fig. 6)) was “ATP competitive inhibitors”. For the same compound, the “kinase activity of GST-CK1δ^M82F in comparison with inhibition of GST-wt CK1δ” value (GST-rat CK1δ^M82F) was “much more affected”, the IC50 (GST-mouse CK1δTV2) was 0.505 ± 0.04 µM and the IC50 (GST-rat CK1δ; [2]) was 0.326 ± 0.19 µM. The “GST-wt CK1δ activity in the presence of inhibitor” value (GST-rat CK1δ; inhibitor at its determined IC50 concentration (Fig. 7)) was “clearly decreased”, the “inhibition of CK1ε in initial screen” value (human CK1ε; inhibitor 10 μM, 10 μM ATP (Fig. 1b)) was “significant inhibition” and the IC50 (GST-mouse CK1δTV1) was 0.18 ± 0.03 µM.

In the case of `O=C(Nc1nc2ccccc2[nH]1)c1csc(NC(=O)c2ccccc2OC(F)(F)F)n1` [Compound 8, N-(1H-Benzo[d]imidazol-2-yl)-2-(2-(trifluoromethoxy)benzamido)thiazole-4-carboxamide], the IC50 (CK1δkd; [2]) is reported as 1.12 ± 0.19 µM and the IC50 (GST-rat CK1δ; [2]) is reported as 0.935 ± 0.55 µM.

For `O=C(Nc1nc2ccccc2s1)c1csc(NC(=O)c2ccccc2OC(F)(F)F)n1` [Compound 9, 2-(2-Trifluoromethoxy-benzoylamino)-thiazole-4-carboxylic acid benzothiazol-2-ylamide], the IC50 (CK1δkd; [2]) was 1.12 µM and 0.73 µM and the IC50 (GST-rat CK1δ; [2]) was 1.19 ± 0.39 µM.

With `O=C(Nc1nc2ccccc2o1)c1csc(NC(=O)c2ccccc2OC(F)(F)F)n1` [Compound 10, N-(Benzo[d]oxazol-2-yl)-2-(2-(trifluoromethoxy)benzamido)thiazole-4-carboxamide] the IC50 (CK1δkd; [2]) was 0.647 ± 0.04 µM, the “activity against CK1δkd” value (CK1δkd) was “kinase activity was even more decreased” and the IC50 (GST-rat CK1δ; [2]) was 0.991 ± 0.21 µM.

For `COC(=O)c1ccc2[nH]c(NC(=O)c3csc(NC(=O)c4ccccc4OC(F)(F)F)n3)nc2c1` [Compound 1, Methyl 2-(2-(2-(trifluoromethoxy)benzamido)-thiazole-4-carboxamido)-1H-benzo[d]imidazole-5-carboxylate], the IC50 (CK1δkd; [2]) was 0.865 ± 0.14 µM, the “activity against CK1δkd” value (CK1δkd) was “diminished activity” and the IC50 (GST-rat CK1δ; [2]) was 1.97 ± 0.85 µM. It also gave an IC50 (human CK1ε; [2]) of 0.496 ± 0.1 µM.
